Data reported in patent US7300926B2, “Steroidal quinols and their use for estrogen replacement therapy” (University of Florida Research Foundation, Inc., priority 2002, dated 2007).
pIC50: −log10 of the molar value. Where two headings read alike, the source gives them in different places.

What was measured:
[1] = Uterine weight in ovariectomized rats; type: in vivo, rat; details: OVX rats; for uterine weight compared with control group: 200 μg/kg sc; for Uterine Weight (g, ± SEM): 200 μg/kg sc in corn oil, 2 hours prior to MCAO, harvested 24 hours after reperfusion
Description: Female, Sprague rats (200-250 g, Charles River, Wilmington, Mass.) were acclimatized for three days prior to surgery. Bilateral ovariectomy (OVX) was performed two weeks prior to middle cerebral artery occlusion (MCAO). Animals were anesthetized by intraperitoneal injection of ketamine (60 mg/kg) and xylazine (10 mg/kg). Rectal temperature was maintained at 37.5±0.5° C. during procedure. The middle cerebral artery was occluded for one hour then suture was withdrawn for reperfusion. […] Animals were decapitated 24 hours after reperfusion. Uteruses were harvested, blotted, and weighed for comparison among treatment groups.

[2] = Cerebral microdialysis, reduction of estrone-quinol to estrone in vivo; parameters: species or system rat; details: probe perfused at 1 μl/min with 10 picomole/μL in aCSF, ventral hippocampus
Text: Male, Sprague rats (300-400 g) were anesthetized, placed in a stereotaxic instrument, and a guide cannula (CMA/12 guide cannula) was implanted into the ventral hippocampus under aseptic conditions. The guide cannula was fixed to the skull, together with stainless steel screws attached into additional two holes, with dental acrylics. Before starting the experiment (usually 5-7 days after the implantation of the guide cannula implantation) the rats were placed in a containment unit (BAS, Inc.) for at least 30 minutes. Then a microdialysis probe (CMA/12 polycarbonate membrane diameter 0.5 mm; membrane length 4 mm; molecular cut off: 5,000 Da) was inserted into the ventral hippocampus through the guide cannula. After insertion, the microdialysis probe was perfused with an artificial cerebrospinal fluid (aCSF) at a flow rate of 1 μl/min. maintained by a microperfusion pump (BAS BeeStinger) attached to the probe via polyethylene tubing and a liquid swivel. After equilibration for 50 minutes, an automatic refrigerated fraction collector (BAS HoneyComb) was used for continuous sampling of the probe efflux for 24 hours in 60 minute fractions collected into 300-μl glass vials (control). […]

[3] = target: T1, recombinant estrogen receptor β (ERβ) (Homo sapiens, UniProt Q92731); assay: Competition binding assay, […] EFC Estrogen Chemiluminescence Assay
T1 construct: purchased Panvera, Madison, Wis
T1 sequence (Q92731 whole entry): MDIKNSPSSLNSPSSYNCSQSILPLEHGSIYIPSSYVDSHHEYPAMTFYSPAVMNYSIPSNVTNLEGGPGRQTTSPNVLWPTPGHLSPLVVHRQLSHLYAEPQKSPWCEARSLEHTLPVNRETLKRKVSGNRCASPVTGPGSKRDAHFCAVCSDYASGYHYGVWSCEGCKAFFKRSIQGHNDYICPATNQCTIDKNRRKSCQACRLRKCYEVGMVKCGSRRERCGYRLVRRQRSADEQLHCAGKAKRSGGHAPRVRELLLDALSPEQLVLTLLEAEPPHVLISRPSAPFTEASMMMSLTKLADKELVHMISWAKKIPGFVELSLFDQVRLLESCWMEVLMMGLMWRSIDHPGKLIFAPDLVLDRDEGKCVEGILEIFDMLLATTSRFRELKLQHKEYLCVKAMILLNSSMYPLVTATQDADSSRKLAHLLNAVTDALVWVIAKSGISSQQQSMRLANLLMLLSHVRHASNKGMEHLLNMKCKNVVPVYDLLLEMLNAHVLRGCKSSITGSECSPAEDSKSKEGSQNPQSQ
Description: (§1) Competition binding assays were performed using an enzyme fragment complementation (EFC) method described in the […] EFC Estrogen Chemiluminescence Assay kit (Fremont, Calif.). […] The enzyme acceptor was then added for another 1.5 hours after which chemiluminescence substrate was added for another hour. Relative luminescences were determined using a Biotek FL600 plate reader (Biotek Instruments, Winooski, Vt.).

[4] = target: T2, recombinant estrogen receptor α (ERα) (Homo sapiens, UniProt P03372); assay: as above
T2 construct: purchased Panvera, Madison, Wis
T2 sequence (P03372 1-595): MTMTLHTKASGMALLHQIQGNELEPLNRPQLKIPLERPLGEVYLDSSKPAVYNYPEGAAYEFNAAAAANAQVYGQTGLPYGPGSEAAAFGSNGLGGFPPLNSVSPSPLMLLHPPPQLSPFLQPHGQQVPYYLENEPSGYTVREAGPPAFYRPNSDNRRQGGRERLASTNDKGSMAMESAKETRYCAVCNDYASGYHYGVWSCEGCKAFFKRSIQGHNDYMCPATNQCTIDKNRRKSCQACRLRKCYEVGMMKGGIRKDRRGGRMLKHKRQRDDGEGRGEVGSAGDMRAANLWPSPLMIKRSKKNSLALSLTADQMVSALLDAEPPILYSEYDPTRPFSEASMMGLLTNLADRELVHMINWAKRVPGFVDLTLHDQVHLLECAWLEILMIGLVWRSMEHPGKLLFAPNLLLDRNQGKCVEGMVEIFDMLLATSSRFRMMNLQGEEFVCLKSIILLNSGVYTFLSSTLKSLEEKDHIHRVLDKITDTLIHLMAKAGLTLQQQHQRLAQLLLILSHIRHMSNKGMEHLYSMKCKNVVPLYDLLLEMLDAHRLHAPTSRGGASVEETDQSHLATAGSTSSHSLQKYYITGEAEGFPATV
Description: as §1

[5] = In vitro reduction of estrone-quinol to estrone by reducing agents in phosphate buffer (LC/MS); type: in vitro ADME; details: for extent of reductive conversion: pH 7.5, 37° C.
Description: Estrone-quinol (0.1 mM) was incubated at 37° C. in 0.1 M phosphate buffer pH 7.5 in the presence of 1 mM of NADH, NADPH, sodium ascorbate, and glutathione (GSH). Aliquots (500 μl) were taken after 60 minutes of incubation, and extracted with ethyl acetate (3×0.5 mL) and the mixture vortexed for 1 minute and centrifuged at […] for 5 minutes. After removing the solvent, the residue of the combined organic extracts was analyzed for their estrone content by LC/MS/MS.
Mass spectra were recorded on a quadrupole ion-trap instrument (LCQ, ThermoFinnigan) using positive-ion APCI as the method of ionization. […] Compound identification was based on retention time (tR), APCI mass spectra, MS/MS and MS^3 with authentic compounds as references. […].
At incremental time points, […] aliquots were removed into ice-cooled centrifuge tubes, and 50 μl of glacial acetic acid was added. After immediate extraction with ethyl acetate (2×500 μl), the organic layer was evaporated under nitrogen stream at room temperature. Reconstitution of the samples with the LC mobile phase was followed by LC/MS analyses. For control, no reducing agents were used.
[…]. […] Kinetic analysis of the microsomal metabolism was done by nonlinear curve-fitting (Scientist for Windows; MicroMath, Inc., Salt Lake City, Utah) presuming consecutive first-order processes in the cascade of estrone-quinol→estrone→estrone-metabolites.

SMILES	uterine weight compared with control group [1]	Uterine Weight (g, ± SEM) [1] [g]	flux of entry into the brain [2]	pIC50 [3]	pIC50 [4]	initial rate of second-order reaction for the reduction by NADPH ([5]; 10-fold excess of NADPH, microsome-free buffer solution, identical incubation conditions) [nmol/min]	extent of reductive conversion ([5]; Example 4, 1.0 mM NADH)	extent of reductive conversion ([5]; Example 4, 1.0 mM NADPH)	pIC50 ([3]; ERβ, read-out: IC50)	pIC50 ([4]; ERα, read-out: IC50)
C[C@]12CC[C@@H]3c4ccc(O)cc4CC[C@H]3[C@@H]1CCC2=O [E1, estrone, reference compound]	doubled	0.222 ± 0.022	–	–	–	–	–	–	–	–
C[C@]12CC[C@H]3[C@@H](CCC4=CC(=O)C=C[C@@]43O)[C@@H]1CCC2=O [E1-quinol, 10β-hydroxyestra-1,4-diene-3,17-dione]	no difference	0.115 ± 0.010	about 2 picomole/minute	< 5.00	< 5.00	0.62 ± 0.03	significant extent of reductive conversion	significant extent of reductive conversion	–	–
C[C@]12CC[C@H]3[C@@H](CCC4=CC(=O)C=C[C@@]43O)[C@@H]1CC[C@@H]2O [E2-quinol]	–	–	–	–	–	–	–	–	< 5.00	< 5.00
